Experimental data from US12643855B2, “Fluorogenic dimer compound, useful as a probe for detection of endogenous receptors” (UNIVERSITE DE STRASBOURG, priority 2020, dated 2026).
Read-outs that look alike come from different tables or passages of the source.

Columns and labels:
[1] = target: T1, endogenous OTR (oxytocin receptor) in mammary glands (Mus musculus, UniProt P97926); experiment: In vivo fluorescence biodistribution study (small animal fluorescence imaging); conditions: lactating mice, 7.5 nmol i.v., imaged 30 min after
T1 construct: target-specific imaging of the naturally expressed receptor in living mice; from tissue; host or cells: living lactating Swiss mice (mammary glands), in vivo imaging
T1 sequence (P97926 1-388): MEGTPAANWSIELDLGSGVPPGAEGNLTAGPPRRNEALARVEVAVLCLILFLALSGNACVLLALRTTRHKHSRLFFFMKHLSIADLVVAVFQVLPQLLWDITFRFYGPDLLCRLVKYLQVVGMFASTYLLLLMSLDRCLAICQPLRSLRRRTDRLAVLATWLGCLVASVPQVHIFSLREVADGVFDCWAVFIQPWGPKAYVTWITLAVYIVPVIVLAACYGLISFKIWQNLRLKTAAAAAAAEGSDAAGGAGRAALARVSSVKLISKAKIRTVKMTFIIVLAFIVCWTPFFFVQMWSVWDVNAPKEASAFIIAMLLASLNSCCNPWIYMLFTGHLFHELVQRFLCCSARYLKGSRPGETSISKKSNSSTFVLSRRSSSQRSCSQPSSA

[2] = test system: GFP-fused oxytocin receptor (GFP-OTR); experiment: Fluorescence confocal microscopy on living HEK293 cells expressing GFP-OTR, no-wash conditions; format: cell-based; conditions: 500 nM
Experimental: FIG. 1: Confocal microscopy studies of dCy5.5-PEG-CBT and mCy5.5-PEG-CBT on living HEK 293 cells expressing OTR-GFP fusion under no-wash conditions. Cells were incubated with the ligands for 5 min at room temperature prior to the imaging.
HEK293 cells expressing the GFP-fused oxytocin receptor (GFP-OTR) and wild-type HEK293 cells were cultured in Eagle's minimal essential medium (MEM, Invitrogen 21090) with 10% of heat-inactivated fetal bovine serum, 100 U/mL of penicillin, 100 µg/mL of streptomycin, 2 mM of glutamine and 50 µg/mL of hygromycin B for GFP-OTR cells at 37° C. in a humidified 5% CO2 atmosphere. 70-80% cell confluence was maintained by removal of a portion of the culture and replacement with fresh medium twice a week. For confocal microscopy studies, cells were seeded onto 35 mm ibiTreat Ibidi Polymer Coverslip at a density of 100 000 cells/Ibidi 24 h before microscopy.
[…] For competition experiments, a mixture of 10 nM of fluorescent ligands and 2 μM of carbetocin was used. Fluorescence confocal microscopy experiments were performed on a Leica TCS SPE-II microscope with a HXC PL APO 63×/1.40 OIL CS objective. GFP excitation was performed with a 488 nm 10 mW laser, the excitation of Cy5.5 was performed with a 635 nm 18 mW laser. Image treatment was proceeded using ImageJ (Wayne Rasband, National Institute of Mental Health, Bethesda).

[3] = in EtOH; cited from earlier work
[4] = in EtOH; cited from earlier work; remark: listed apart in the source
[5] = in MeOH; cited from earlier work

Which results are given for `CC[C@H](C)[C@@H]1NC(=O)[C@H](Cc2ccc(OC)cc2)NC(=O)CCCSC[C@@H](C(=O)N2CCC[C@H]2C(=O)N[C@@H](CCCCn2cc(CNC(=O)CCNC(=O)CCC(=O)NCCOCCOCCNC(=O)CCC(=O)NCCOCCOCCNC(=O)CCC(=O)NCCOCCOCCNC(=O)CCCCCN3/C(=C/C=C/C=C/C4=[N+](CCOCCOCCOCCOCCOCCOCCOCCOC)c5ccc6ccccc6c5C4(C)C)C(C)(C)c4c3ccc3ccccc43)nn2)C(=O)NCC(N)=O)NC(=O)[C@H](CC(N)=O)NC(=O)[C@H](CCC(N)=O)NC1=O.O=C([O-])C(F)(F)F` [mCy5.5-PEG-CBT]?
Off-target fluorescence signal [1]: strong off-target fluorescence; Image background from unbound probe [2]: strong background

For Rhodamine 800, which “Fluorescence quantum yield (QY) of the reference” value (shortened to “Fluorescence quantum yield (QY)”) [3] is on record?
Its value is 25%.

What about the “Fluorescence quantum yield (QY)” value [4] of the same molecule?
Its value is 25%.

For `CCCCCCCCCCCCCCCCCCN1/C(=C/C=C/C=C/C2=[N+](CCCCCCCCCCCCCCCCCC)c3ccccc3C2(C)C)C(C)(C)c2ccccc21.[O-][Cl+3]([O-])([O-])[O-]` [DID], which “Fluorescence quantum yield (QY)” value [5] is on record?
Its value is 33%.
